From patent publication US11497813B2, “Bortezomib conjugates and methods using same” (Frank EBETINO et al., priority 2015, dated 2022)
Entries after “also recorded” stand apart in the source; their conditions may differ.

Key:
fractured mice = assay: Open tibial fracture healing in WT mice; assay type: in vivo, mouse
Procedure: WT mice that received an open tibial fracture were treated with Btz (0.6 mg/kg body weight, ip) or vehicle at day 1, 3, 5, 7, and sacrificed at various days post-fracture. FIG. 2A is an image of the structure of Bortezomib. FIG. 2B is a graph depicting μCT data analyses of callus size from 10 days post-fracture. N+4 mice/group. FIG. 2C is a series of images of representative histology of fractured tibiae stained with alcian blue hematoxylin/orange G eosin showing cartilage (blue) and bone (pink) formation. Histomorphometric measurements were performed with a Visiopharm Imaging Analysis software system. N=3 mice/group. FIG. 2D is a series of graphs depicting data of biomechanical testing of tibiae from 28 days after fracture. N=5 mice/group. FIG. 2E is a series of images of spectra depicting data of immune-phenotyping of callus cells from 7 days post-fracture. FIG. 2F is a series of images of immunoblots depicting protein expression levels of total Ub-proteins and JunB and Runx2 levels in calluses from 10 days post-fracture. *p<0.05 vs. vehicle group.

mice = assay: Survival of mice treated with Btz; assay type: in vivo, mouse
Excerpt: BP-Btz is expected to have a higher efficacy on 1) reducing OVX-induced bone loss and 2) promoting fracture healing in aged mice with lesser adverse systemic effects than those of Btz. A critical difference between BP-Btz and Btz is that in vivo BP-Btz brings Btz to bone, thereby exerting its bioactivity locally, while Btz can exert its bioactivity systemically. It is hypothesized that BP-Btz conjugates should have similar or better positive bioactivities than Btz on bone volume, but with a significant reduction in side effects. In humans, the toxicities of Btz include peripheral neuropathy and thrombocytopenis (Weathington and Mallampalli, 2014, J. Clin. Invest. 124:6-12). Little is known the toxicity of Btz in mice. […] Although not wishing to be bound by any particular theory, these adverse effects are thought to be due to the systemic distribution of the drug. Thus, the generation of bone-targeted Btz could meet a critical clinical need, by and increasing the local drug concentration to capitalize on the efficacy of BTz while reducing systemic side effects. Because proteasome inhibitors could increase bone volume in normal and OVX mice, and promote fracture healing in adult mice (Khedgikar et al., 2013, Cell Death Dis. 4:e778; Maseda et al., 2008, Cell Death Differ. 15:600-612), OVX and fracture models are used to examine the efficacy of the leading BP-Btz conjugates on bone. […]

[1] = test system: bone resorption and formation; assay: In vivo dose-response experiments on bone resorption and formation
Excerpt: In vitro testing is also used to examine analogues of BP-Btz1.

OVX mice = assay: OVX-induced bone loss in C57/B6 mice; assay type: in vivo, mouse
Procedure: Ovariectomy was carried out in 10-week-old female C57/B6 mice.
Histomorphometry (FIG. 20A) and biomechanical testing (FIG. 20B) were also done. These experiments were done using C57/B6 mice, 10 w, treatment at 4 w post-OVX for 4 w.

5TGM1-GFP myeloma cells = assay: Multiple myeloma model, 5TGM1-GFP myeloma cells in NIH-III nude mice; assay type: in vivo, mouse
Excerpt: FIG. 25A depicts the groups and treatment used in the experimental examples. FIG. 25B depicts a table of clinical observations. FIG. 25C depicts images of GFP imaging showing the distribution of myeloma cells. FIG. 25D is a table of experimental data showing blood IgG2b levels. FIG. 25E is a table of experimental data showing osteoblast differentiation.
A MM model was generated using tail vein injection of 5TGM1-GFP myeloma cells into 6-week-old female NIH-III nude mice. Tumor burden and bone volume were examined.

Ub-proteins = assay: Duration of ubiquitinization effect (FIG. 18); conditions: compared with Btz
[2] = OVX C57/B6 mice, treatment at 4 w post-OVX for 4 w
[3] = myeloma mice, compared with Btz

In the case of `CC(C)C[C@H](NC(=O)[C@H](Cc1ccccc1)NC(=O)c1cnccn1)B(O)O` [Btz, [(1R)-3-methyl-1-[[(2S)-1-oxo-3-phenyl-2[(pyrazinylcarbonyl)amino]propyl]amino]butyl] boronic acid], the “expression of osteoblast positive regulators” value (fractured mice; 0.6 mg/kg ip day 1, 3, 5, 7, JunB and Runx2 in calluses) was “increases”, the MSC numbers (fractured mice; 0.6 mg/kg ip day 1, 3, 5, 7, callus cells) was “increases” and the “Nestin+ MPCs” value (fractured mice; fractured mice) was “increased”. For the same compound, the bone strength (fractured mice; fractured mice) was “increases bone strength”, the callus formation (fractured mice; fractured mice) was “accelerates callus formation” and the “Ub-proteins in fracture calluses” value (fractured mice; short-term treatment) was “accumulation of Ub-proteins”. For the same compound, the fracture healing (fractured mice; short-term treatment) was “increases fracture healing”, the survival rate (mice; aged mice) was 53% and the survival (mice; young mice) was 94%.
In the case of `CC(C)C[C@H](NC(=O)[C@H](Cc1ccccc1)NC(=O)c1cnccn1)B1OCCN(CCOC(=O)NC(P(=O)(O)O)P(=O)(O)O)CCO1` [BP-Btz1], the bone resorption [1] was “inhibits bone resorption”, the bone formation ([1]; compared with Btz alone) was “stimulates formation at doses lower than effective doses of Btz alone” and the bone mass (OVX mice; [2]) was “increases bone mass and strength in OVX mice as effectively as Btz”. The bone strength (OVX mice; [2]) was “increases bone mass and strength in OVX mice as effectively as Btz”, the OVX-induced bone loss (OVX mice; OVX mice) was “reduces OVX-induced bone loss” and the osteoblast differentiation (OVX mice; OVX mice) was “more potently promotes osteoblast differentiation”. For the same compound, the CFU-ALP colony formation (OVX mice; cells from OVX mice) was “increases CFU-ALP colony formation”, the CFU-F colony formation (OVX mice; cells from OVX mice) was “increases CFU-F colony formation” and the “peripheral blood platelet and cell numbers (blood counts)” value (5TGM1-GFP myeloma cells; FIG. 27, compared with Btz) was “less deleterious effects than Btz; also recorded: reduces side effects on blood counts compared with Btz”. The “osteoblast colonies from bone marrow cells” value (5TGM1-GFP myeloma cells; bone marrow cells from treated myeloma mice) was “form more osteoblast colonies”, the myeloma-induced bone loss (5TGM1-GFP myeloma cells; [3]) was “reduces tumor burden and myeloma-induced bone loss more effectively than Btz; also recorded: prevents myeloma-induced bone loss more effectively than Btz” and the tumor burden (5TGM1-GFP myeloma cells; [3]) was “reduces tumor burden and myeloma-induced bone loss more effectively than Btz”. The ubiquitinization effect (Ub-proteins) was “more sustained ubiquitinization effect than Btz”.
